Measured values reported in patent US10030027B2, “Soluble guanylate cyclase stimulators” (MERCK SHARP & DOHME CORP., priority 2015, dated 2018).
pEC50, pKi: −log10 of the molar value.

Key:
[1] = biological target: human recombinant sGC enzyme (Homo sapiens (Human), UniProt Q02108+Q02153); test: Size Exclusion Chromatography (SEC) competition binding assay using [3H] Ex-77B as the radioligand; conditions: [3H] Ex-77B radioligand, 24 hours at 37° C.
Summary of the method: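 Recombinant human sGC binding measured by competition against tritiated Ex-77B radioligand, with non-specific binding defined by 1 μM unlabeled Ex-77B.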

[2] = biological target: sGC α1/β1 heterodimer (Homo sapiens (Human), UniProt Q02108+Q02153); test: Cell-based sGC functional assay (cyclic GMP assay for sGC activator: CASA assay); set-up: % Activation: concentration or dose not given beside the values; conditions: CHO-K1/sGC cells; for Emax: CHO-K1, activity expressed as percentage of compound A (standard), read-out: % Activation; for pEC50: inflection point, 4P fit, read-out: IP; for % Activation: activity expressed as percentage of compound A (standard)
Summary of the method: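 CHO-K1 cells stably expressing human sGC α1/β1 were pre-incubated 30 min at 25° C with or without 1 μM DETA-NO, then exposed to compound for 1 hr at 37° C with 0.5 mM IBMX and 2.5% DMSO final. Intracellular cGMP was measured by HTRF, expressed as % of reference sGC-HDA maximum; inflection point and maximum fold induction came from 4-parameter fits.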

Compound	pKi [1]	Emax [2] [%]	pEC50 [2]	% Activation [2] [%]
CC(C)(Cc1csc([C@]2(C)C(=O)Nc3nc(-c4nn(Cc5cccc(F)c5)c5cc(F)ccc45)nc(N)c32)n1)C(=O)O [Example 194A, (S)-3-(2-{4-amino-2-[6-fluoro-1-(3-fluorobenzyl)-1H-indazol-3-yl]-5-methyl-6-oxo-6,7-dihydro-5H-pyrrolo[2,3-d]pyrimidin-5-yl}-1,3-thiazol-4-yl)-2,2-dimethyl-propanoic acid]	10.39	128	7.14	–
Cc1cccc(Cn2nc(-c3nc(N)c4c(n3)NC(=O)[C@@]4(C)c3ccc(CCC(=O)O)cc3)c3ccc(Cl)cc32)c1 [Example 66B, (S)-3-(4-{4-amino-2-[6-chloro-1-(3-methylbenzyl)-1H-indazol-3-yl]-5-methyl-6-oxo-6,7-dihydro-5H-pyrrolo[2,3-d]pyrimidin-5-yl}phenyl)propanoic acid]	9.31	107	6.62	–
CC1(c2cn(CC(=O)O)nn2)C(=O)Nc2nc(-c3nn(CCC(F)(F)C(F)(F)F)c4cc(Cl)ccc34)nc(N)c21 (stereo not drawn) [Example 28B, (4-{4-amino-2-[6-chloro-1-(3,3,4,4,4-pentafluorobutyl)-1H-indazol-3-yl]-5-methyl-6-oxo-6,7-dihydro-5H-pyrrolo[2,3-d]pyrimidin-5-yl}-1H-1,2,3-triazol-1-yl)acetic acid]	9.27	105	5.66	–
CC1(c2cccc(C(=O)O)c2)C(=O)Nc2nc(-c3nn(CCC(F)(F)C(F)(F)F)c4cc(Cl)ccc34)nc(N)c21 (stereo not drawn) [Example 26B, 3-{4-amino-2-[6-chloro-1-(3,3,4,4,4-pentafluorobutyl)-1H-indazol-3-yl]-5-methyl-6-oxo-6,7-dihydro-5H-pyrrolo[2,3-d]pyrimidin-5-yl}benzoic acid]	9.58	102	5.72	–

Other lines, results leading:

pKi [1]	Emax [2] [%]	pEC50 [2]	% Activation [2] [%]	Compound
10.33	120	6.39	–	CC(C)(Cc1coc(C2(C)C(=O)Nc3nc(-c4nn(Cc5ccccc5F)c5ncccc45)nc(N)c32)n1)C(=O)O (stereo not drawn) [Example 1A, 3-(2-{4-Amino-2-[1-(2-fluorobenzyl)-1H-pyrazolo[3,4-b]pyridin-3-yl]-5-methyl-6-oxo-6,7-dihydro-5H-pyrrolo[2,3-d]pyrimidin-5-yl}oxazol-4-yl)-2,2-dimethylpropanoic acid]
9.30	–	6.11	114.6	CC(C)(Cc1csc([C@]2(C)C(=O)Nc3nc(-c4nn(CC5CCCCO5)c5ccccc45)nc(N)c32)n1)C(=O)O (single isomer, unassigned) [Example 229AA]
10.24	103	6.52	–	CC1(c2ccc(/C=C/C(=O)O)cc2)C(=O)Nc2nc(-c3nn(Cc4ccccc4F)c4cc(Cl)ccc34)nc(N)c21 (stereo not drawn) [Example 218A, (2E)-3-(4-{4-amino-2-[6-chloro-1-(2-fluorobenzyl)-1H-indazol-3-yl]-5-methyl-6-oxo-6,7-dihydro-5H-pyrrolo[2,3-d]pyrimidin-5-yl}phenyl)prop-2-enoic acid]
9.10	113	6.26	–	CC(C)(CCc1coc(C2(C)C(=O)Nc3nc(-c4nn(Cc5ccccc5F)c5ncccc45)nc(N)c32)n1)C(=O)O (stereo not drawn) [Example 206B, 4-(2-{4-amino-2-[1-(2-fluorobenzyl)-1H-pyrazolo[3,4-b]pyridin-3-yl]-5-methyl-6-oxo-6,7-dihydro-5H-pyrrolo[2,3-d]pyrimidin-5-yl}-1,3-oxazol-4-yl)-2,2-dimethyl-butanoic acid]
10.11	–	6.70	109.2	CC1CCC(Cn2nc(-c3nc(N)c4c(n3)NC(=O)C4(C)c3nc(CC(C)(C)C(=O)O)co3)c3cccnc32)CC1 (single isomer, unassigned) [Example 126AB, 3-{2-[4-amino-5-methyl-2-{1-[4-methylcyclohexylmethyl]-1H-pyrazolo[3,4-b]pyridin-3-yl}-6-oxo-6,7-dihydro-5H-pyrrolo[2,3-d]pyrimidin-5-yl]-1,3-oxazol-4-yl}-2,2-dimethylpropanoic acid]
